Assay results taken from US20070123718A1, “Novel 4-amino-2(5H)-furanones” (Aston University, priority 2003, published 2007).
Like-named read-outs stand apart in the source and are kept apart here.

Legend:
[1] = biological target: T1, CCKB receptor (guinea pig cerebral cortex) (Cavia porcellus, UniProt H0VZC5); test: 125I-CCK-8 receptor binding assay, CCKB; details: guinea pig cerebral cortex membranes
T1 construct: CCKB (nM); other: guinea pig cerebral cortex membranes, 125I-Bolton-Hunter CCK 25 pM; Activity CCK-B [μM]; guinea pig cerebral cortex membranes
T1 sequence (H0VZC5 1-426): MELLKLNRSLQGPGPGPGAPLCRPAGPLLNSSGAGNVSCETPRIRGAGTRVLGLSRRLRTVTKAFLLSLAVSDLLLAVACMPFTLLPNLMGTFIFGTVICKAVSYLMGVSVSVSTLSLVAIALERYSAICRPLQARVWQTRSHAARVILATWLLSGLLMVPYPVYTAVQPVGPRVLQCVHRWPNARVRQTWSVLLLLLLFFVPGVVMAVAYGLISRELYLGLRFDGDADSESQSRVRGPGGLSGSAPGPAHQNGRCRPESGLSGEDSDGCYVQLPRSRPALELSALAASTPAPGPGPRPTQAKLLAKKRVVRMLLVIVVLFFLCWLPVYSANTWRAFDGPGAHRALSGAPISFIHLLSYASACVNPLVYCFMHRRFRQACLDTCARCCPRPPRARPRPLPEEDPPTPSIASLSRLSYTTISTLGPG
Method: (§1) CCKA and CCKB receptor binding assays were performed, by using guinea pig cerebral cortex (CCKB) or rat pancreas (CCKA). Male guinea pig brain tissues were prepared according to the modified method described by Saita et al, [(1994), Characterization of YM022: its CCKB/gastrin receptor binding profile and antagonism to CCK-8-induced Ca2+mobilization., Eur. J. Pharmacol.,269, 249-254]. Pancreatic membranes were prepared in a similar way but by Charpentier et al, [(1988), Cyclic cholecystokinin analogues with high selectivity for central receptors., Proc Natl Acad Sci USA, 85, 1968-1972]. The […] CCK binding assay: Tissues were homogenized in ice cold sucrose (0.32 M, 25 ml) for 15 strokes at 500 rpm and centrifuged at 13000 rpm for 10 mins. The supernatant was re-centrifuged at 13000 rpm for 20 mins. The resulting pellet was re-dispersed to the required volume of buffer at 500 rpm and stored in aliquots at […].
(§2) Binding was achieved using a radioligand ^125I-Bolton-Hunter labeled CCK, NEN at 25 pM. The samples were incubated {with membranes (0.1 mg/ml) } in 20 mM Hepes, 1 mM EGTA, 5 mM MgCl2, 150 mm NaCl, 0.25 mg/ml bacitracin at pH 6.5 for 2 hrs at RT and then […] by centrifugation at 1100 rpm for 5 minutes. The membrane pellets were washed twice with water and the bound radioactivity was measured in a Packard Cobra Auto-gamma counter (B5005). All binding assays were carried out with L-363, 260 as an internal non-specific standard. Controls (no compound) were also added. All samples were made in duplicate and repeated twice. All compounds were initially screened for percentage inhibition at 20 μm. Samples showing an average inhibition of <35% were diluted to 2 μm and re-screened and if active diluted again.

[2] = system: CCKB receptor (guinea pig cerebral cortex); test: 125I-CCK-8 receptor binding assay, CCKB; details: ratio CCKB/CCKA
Method: as §1, §2

[3] = biological target: T2, CCKA receptor (rat pancreas) (Rattus norvegicus, UniProt P30551); test: 125I-CCK-8 receptor binding assay, CCKA; details: rat pancreas membranes, 125I-Bolton-Hunter CCK 25 pM
T2 construct: Pancreatic membranes were prepared in a similar way but by Charpentier et al; from tissue; host or cells: rat pancreas membranes
T2 sequence (P30551 1-444): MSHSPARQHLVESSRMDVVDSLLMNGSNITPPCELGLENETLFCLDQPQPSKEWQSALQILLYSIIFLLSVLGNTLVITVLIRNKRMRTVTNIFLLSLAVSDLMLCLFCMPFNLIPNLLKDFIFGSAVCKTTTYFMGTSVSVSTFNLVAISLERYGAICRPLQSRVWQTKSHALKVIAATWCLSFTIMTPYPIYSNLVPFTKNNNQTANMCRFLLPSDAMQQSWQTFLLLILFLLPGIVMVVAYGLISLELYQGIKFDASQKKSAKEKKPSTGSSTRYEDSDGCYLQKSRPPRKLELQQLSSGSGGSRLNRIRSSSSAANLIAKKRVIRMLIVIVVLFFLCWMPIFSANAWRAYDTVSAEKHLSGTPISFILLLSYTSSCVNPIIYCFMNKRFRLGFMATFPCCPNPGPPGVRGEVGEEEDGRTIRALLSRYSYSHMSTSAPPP
Method: as §1, §2

[4] = Table 2, read-out: Activity CCK-B [μM] (IC50)
[5] = 125I-Bolton-Hunter CCK 25 pM, read-out: CCKB

COC1OC(=O)C(Cl)=C1N1CCc2ccccc21 (stereo not drawn) [Example A8B2] showed an IC50 [1, 4] of 1.5 µM.
Compound C#CCOC1OC(=O)C(Cl)=C1N(C(C)C)C1CCCCC1 (stereo not drawn) [Example 6, 3-Chloro-4-[cyclohexyl(isopropyl)amino]-5-(prop-2-ynyloxy)furan-2(5H)-one] has an IC50 [1, 5] of 0.008 µM, a Selectivity [2] of 1.3 and an IC50 [3] of 6 nM.
In the case of CC(C)OC1OC(=O)C(Cl)=C1N1CCc2ccccc21 (stereo not drawn) [Example 9, 3-Chloro-4-(2,3-dihydro-1H-indol-1-yl)-5-isopropoxy-2(5H)-one], the IC50 [1, 4] is reported as 2.5 µM.
COC1OC(=O)C(Cl)=C1NC1CCC(CCCc2ccccc2)CC1 (stereo not drawn) [Example A8B25] gave an IC50 [1, 4] of 16 µM.
CC(C)OC1OC(=O)C(Cl)=C1NCc1ccccc1Cl (stereo not drawn) [Example 11, 3-Chloro-4-[(2-chlorobenzyl)amino]-5-isopropoxy-4-2(SH)-oue] showed an IC50 [1, 4] of 0.95 µM.
C#CCOC1OC(=O)C(Cl)=C1N1CCN(Cc2ccccc2)CC1 (stereo not drawn) [Example 5, 4-(4-Benzylpiperazin-1-yl) 3-chloro-5-(prop-2-ynyloxy)furan-2(5H)-one] showed an IC50 [1, 4] greater than 20 µM.
CCC(C)NC1=C(Cl)C(=O)OC1OC (stereo not drawn) [Example A8B5] showed an IC50 [1, 4] of 1.2 µM.
CC1CCC(C(C)C)C(OC2OC(=O)C(Cl)=C2N(C)Cc2ccccc2)C1 (stereo not drawn) [Example 1, 4-[Benzyl(metliyl)arino]-3-chloro-5-[(2-isopropyl-5-methlylcyclohexyl)oxo] furan-2(5H)-one] was tested, and the IC50 [1, 4] was 0.31 µM.
C#CCOC1OC(=O)C(Cl)=C1N1C(C)CNCC1C (stereo not drawn) [Example A3B20] showed an IC50 [1, 4] of 11.2 µM.
Work on CC(=O)OC1OC(=O)C(Cl)=C1N1CCc2ccccc21 (stereo not drawn) [Example 2, 4-ClIforo-3-(2,3-dihydro-1H-indol-1-yl)-5-oxo-2,5-dihydrofuran-2-yl acetate] yielded an IC50 [1, 4] greater than 20 µM.
For C#CCOC1OC(=O)C(Cl)=C1N1CC(C)OC(C)C1 (stereo not drawn) [Example 3, 3-Chloro-4-(2,6-dimethylmorpholin-4-yl)-5-(prop-2-ynyloxy)furan-2(5H)-one], the IC50 [1, 4] was 12.6 µM.
Compound C=COC1OC(=O)C(Cl)=C1Nc1c(C)n(C)n(-c2ccccc2)c1=O (stereo not drawn) [Example 7, 3-Chloro-4-[(1,5-dimethyl-2-phenyl-1,3-dihydro-3H-pyrazol-3-one)amino]-5-(vinyloxy)furan-2(5H)-one] has an IC50 [1, 4] of 3.3 µM.
C#CCOC1OC(=O)C(Cl)=C1NCc1ccccc1 (stereo not drawn) [Example 4, 4-(Benzylamino)-3-chloro-5-(prop-2-ynyloxy)furan-2(5H)-one] showed an IC50 [1, 5] of 0.014 µM, a Selectivity [2] of 1.5 and an IC50 [3] of 9 nM.
CCN(C1=C(Cl)C(=O)OC1CC(=O)c1ccc(Cl)cc1)c1cccc(C)c1 (stereo not drawn) [Example 16, 3-Chloro-5-[2-(4-chlorophenyl)-2-oxoethyl]-4-(ethyl-3-methylanilino) furan-2(5H)-one] showed an IC50 [1, 5] of 0.019 µM, a Selectivity [2] of 2.3 and an IC50 [3] of 8 nM.
COC1OC(=O)C(Cl)=C1N1CCN(c2ccccc2)CC1 (stereo not drawn) [Example A8B8] showed an IC50 [1, 4] of 14 µM.
Work on O=C1OC(Cl)C(Nc2ccccc2)=C1Cl (stereo not drawn) [Example 8, 4-Anilino-3,5-dichlorofuran-2(5H)-one] yielded an IC50 [1, 4] of 16 µM.
In the case of CCCCCCCCCCCCCCCCOC1OC(=O)C(Cl)=C1n1cc(C)cc1C (stereo not drawn) [Example A7B23], the IC50 [1, 4] is reported as 0.86 µM.
Work on COC1OC(=O)C(Cl)=C1n1cnc2ccccc21 (stereo not drawn) [Example A8B3] yielded an IC50 [1, 4] of 2.3 µM.
With COC1OC(=O)C(Cl)=C1N1CCN(Cc2ccccc2)CC1 (stereo not drawn) [Example A8B16] the IC50 [1, 4] was 16 µM.
COC1OC(=O)C(Cl)=C1Nc1cccc(C)c1 (stereo not drawn) [Example A8B4] was tested, and the IC50 [1, 4] was 2.5 µM.
With CC(C)OC1OC(=O)C(Cl)=C1N(Cc1ccccc1)Cc1ccccc1 (stereo not drawn) [Example 12, 3-Chloro-4-(dibenzylamino)-5-isopropoxyfuran-2(5H)-one] the IC50 [1, 4] was 17 µM.
For CC(C)CNC1=C(Cl)C(=O)OC1c1ccccc1 (stereo not drawn) [Example 17, 3-Chloro-4-(isobutylamino)-5-phenyl furan-2(5H)-one], the IC50 [1, 5] was 0.011 µM, the Selectivity [2] was 1.6 and the IC50 [3] was 7 nM.
COC1OC(=O)C(Cl)=C1Nc1c(C)n(C)n(-c2ccccc2)c1=O (stereo not drawn) [Example 14] showed an IC50 [1, 4] of 18 µM.
For COC1OC(=O)C(Cl)=C1NCCCN1CCOCC1 (stereo not drawn) [Example A8B17], the IC50 [1, 4] was 15 µM.
Compound CCCCCCCCCCCCNC1=C(Cl)C(=O)OC1OC (stereo not drawn) [Example A8B10] has an IC50 [1, 4] of 2.5 µM.
Work on CCCCCCNC1=C(Cl)C(=O)OC1OC (stereo not drawn) [Example 15, 3-Chloro-4-(hexylamino)-5-methoxyfuran-2(5H)-one] yielded an IC50 [1, 5] of 0.012 µM, a Selectivity [2] of 1.5 and an IC50 [3] of 8 nM.
CCCCCCCCCCCCCCCCOC1OC(=O)C(Cl)=C1N1CCN(C(=O)OCC)CC1 (stereo not drawn) [Example A7B24] showed an IC50 [1, 4] of 12.4 µM.
Work on CC1CCC(C(C)C)C(OC2OC(=O)C(Cl)=C2N2CCCC2)C1 (stereo not drawn) [Example A1B9] yielded an IC50 [1, 4] of 2.2 µM.
With CC(C)OC1OC(=O)C(Cl)=C1N(C)Cc1ccccc1 (stereo not drawn) [Example 10, 4-[Benzyl(methyl)amino]-3-chloro-5-isopropoxyfuran-2(5H)-one] the IC50 [1, 4] was 12 µM.
COC1OC(=O)C(Cl)=C1n1ccc(C)n1 (stereo not drawn) [Example A8B26] was tested, and the IC50 [1, 4] was 11 µM.
COC1OC(=O)C(Cl)=C1N1CCC(c2ccccc2)CC1 (stereo not drawn) [Example A8B11] gave an IC50 [1, 4] of 3 µM.
CC(C)OC1OC(=O)C(Cl)=C1NCCc1ccccc1 (stereo not drawn) [Example 13, 3-Chloro-5-isopropoxy-4-(phenethylamine)furan-2(5H)-one] showed an IC50 [1, 4] of 1.1 µM.
